Source: patent US8686146B2, “Azaindenoisoquinoline topoisomerase I inhibitors” (Purdue Research Foundation, priority 2012, dated 2014)
Structures can show the parent of a compound that is named as a salt. Where two headings read alike, the source gives them in different places.

Tests used:
UACC-62 = experiment: NCI screen antiproliferative activity, melanoma UACC-62
Description: (§1) Cells of approximately 60 different human cancer cell lines were incubated for 48 h with five 10-fold dilutions of the tested compounds starting from 100 μM and then treated with sulforhodamine B dye. The ratios of recorded optical densities relative to that of the control were plotted as a function of the common logarithm of the tested compound concentrations. […] The GI50 and the mean graph midpoint (MGM) values of the prepared indenoisoquinolines in selected cell lines are presented in Table I.
(§2) The antiproliferative activity of each compound was determined in the National Cancer Institute (NCI) screen as described above. Cells of approximately 60 different human cancer cell lines were incubated for 48 h with five 10-fold dilutions of the test compounds starting from 100 μM, and then treated with sulforhodamine B dye. The ratios of recorded optical densities relative to those of the control were plotted as a function of the common logarithm of the tested compound concentrations. […] The GI50 and the mean graph midpoint (MGM) values of the prepared (aza)indeno-isoquinolines in selected cell lines are presented in Table 2.

HCT-116 = experiment: NCI screen antiproliferative activity, colon HCT-116
Description: as §1, §2

[1] = system: approximately 60 different human cancer cell lines; experiment: NCI screen, mean graph midpoint over all cell lines; type: cell-based; conditions: all human cancer cell lines successfully tested, 48 h
Description: as §1, §2

OVCAR-3 = experiment: NCI screen antiproliferative activity, ovarian OVCAR-3
Description: as §1, §2

SN12C = experiment: NCI screen antiproliferative activity, renal SN12C
Description: as §1, §2

DU-145 = experiment: NCI screen antiproliferative activity, prostate DU-145
Description: as §1, §2

human recombinant Top1 = molecular target: T1, human recombinant Top1 (Homo sapiens, UniProt P11387); experiment: Top1-mediated DNA cleavage assay; type: biochemical; conditions: semiquantitative, relative to compounds 1 and 2
T1 construct: made in house
T1 sequence (P11387 1-765): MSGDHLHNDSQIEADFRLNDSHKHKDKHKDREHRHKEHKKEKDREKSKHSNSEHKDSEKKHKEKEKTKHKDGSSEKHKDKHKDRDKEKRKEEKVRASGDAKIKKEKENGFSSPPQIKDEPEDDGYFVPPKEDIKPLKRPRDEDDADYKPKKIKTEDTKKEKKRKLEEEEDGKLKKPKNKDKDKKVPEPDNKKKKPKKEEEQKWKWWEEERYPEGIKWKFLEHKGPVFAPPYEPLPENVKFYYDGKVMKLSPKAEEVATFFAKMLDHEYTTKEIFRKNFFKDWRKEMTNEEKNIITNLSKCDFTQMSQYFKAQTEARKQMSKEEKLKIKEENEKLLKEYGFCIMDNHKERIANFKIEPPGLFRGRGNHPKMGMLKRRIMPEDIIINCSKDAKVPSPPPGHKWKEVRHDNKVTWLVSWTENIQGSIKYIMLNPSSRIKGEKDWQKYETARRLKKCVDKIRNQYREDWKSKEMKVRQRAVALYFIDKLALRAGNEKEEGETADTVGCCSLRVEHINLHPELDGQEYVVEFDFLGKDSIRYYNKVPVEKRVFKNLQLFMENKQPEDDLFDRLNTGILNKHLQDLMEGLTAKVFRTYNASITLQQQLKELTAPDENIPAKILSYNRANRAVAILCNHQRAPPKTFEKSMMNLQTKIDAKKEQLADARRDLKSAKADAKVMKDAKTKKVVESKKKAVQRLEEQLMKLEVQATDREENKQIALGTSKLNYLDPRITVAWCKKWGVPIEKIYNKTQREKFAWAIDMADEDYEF
Description: Unincorporated [^32P]dGTP was removed using mini Quick […] columns (Roche, Indianapolis, Ind.), and the eluate containing the […] DNA substrate was collected. […] Aliquots of each reaction mixture were subjected to 20% denaturing PAGE. […] The DNA fragments were separated on a denaturing gel. […] All of the target compounds were tested for induction of DNA damage in Top1-mediated DNA cleavage assays, as described above.

HOP-62 = experiment: NCI screen antiproliferative activity, lung HOP-62
Description: as §1, §2

MCF7 = experiment: NCI screen antiproliferative activity, breast MCF7
Description: as §1, §2

SF-539 = experiment: NCI screen antiproliferative activity, CNS SF-539
Description: as §1, §2

[2] = Homo sapiens, UACC-62, 48 h, read-out: cytotoxicity (GI50) melanoma UACC-62, 48 h, sulforhodamine B, single determination, Table 1
[3] = Homo sapiens, HCT-116, 48 h, read-out: cytotoxicity (GI50) colon HCT-116, 48 h, sulforhodamine B, single determination, Table 1
[4] = Homo sapiens, OVCAR-3, 48 h, read-out: cytotoxicity (GI50) ovarian OVCAR-3, 48 h, sulforhodamine B, single determination, Table 1
[5] = Homo sapiens, SN12C, 48 h, read-out: cytotoxicity (GI50) renal SN12C, 48 h, sulforhodamine B, single determination, Table 1
[6] = Homo sapiens, DU-145, 48 h, read-out: cytotoxicity (GI50) prostate DU-145, 48 h, sulforhodamine B, single determination, Table 1
[7] = Homo sapiens, HOP-62, 48 h, read-out: cytotoxicity (GI50) lung HOP-62, 48 h, sulforhodamine B, single determination, Table 1
[8] = Homo sapiens, MCF7, 48 h, read-out: cytotoxicity (GI50) breast MCF7, 48 h, sulforhodamine B, single determination, Table 1
[9] = Homo sapiens, UACC-62, 48 h, read-out: cytotoxicity (GI50) melanoma UACC-62, 48 h, sulforhodamine B, single determination, Table 2
[10] = Homo sapiens, 48 h, read-out: cytotoxicity (GI50) CNS SF-539, 48 h, sulforhodamine B, single determination, Table 2
[11] = Homo sapiens, HCT-116, 48 h, read-out: cytotoxicity (GI50) colon HCT-116, 48 h, sulforhodamine B, single determination, Table 2
[12] = Homo sapiens, SN12C, 48 h, read-out: cytotoxicity (GI50) renal SN12C, 48 h, sulforhodamine B, single determination, Table 2
[13] = Homo sapiens, DU-145, 48 h, read-out: cytotoxicity (GI50) prostate DU-145, 48 h, sulforhodamine B, single determination, Table 2
[14] = Homo sapiens, HOP-62, 48 h, read-out: cytotoxicity (GI50) lung HOP-62, 48 h, sulforhodamine B, single determination, Table 2
[15] = Homo sapiens, MCF7, 48 h, read-out: cytotoxicity (GI50) breast MCF7, 48 h, sulforhodamine B, single determination, Table 2

SMILES: CN(C)CCCn1c2c(c3ccccc3c1=O)C(=O)c1cccnc1-2 [Compound 18, 7-Aza-5,6-dihydro-6-(3-dimethylaminopropyl)-5,11-dioxo-11H-indeno[1,2-c]-isoquinoline Hydrochloride]
- GI50 (UACC-62; [2]): 2690 nM
- GI50 (HCT-116; [3]): 410 nM
- MGM (mean graph midpoint for growth inhibition) ([1]; Table 1): 1.78 µM
- GI50 (OVCAR-3; [4]): 2570 nM
- GI50 (SN12C; [5]): 810 nM
- GI50 (DU-145; [6]): 1350 nM
- Top1 Cleavage (human recombinant Top1; Table 1): +++
- GI50 (HOP-62; [7]): 1510 nM
- GI50 (MCF7; [8]): 250 nM

SMILES: Cl.O=C1c2cccnc2-c2c1c1ccccc1c(=O)n2CCCN1CCOCC1 [Compound 21, 7-Aza-5,6-dihydro-6-(3-morpholinopropyl)-5,11-dioxo-11H-indeno[1,2-c]iso-quinoline Hydrochloride]
- GI50 (UACC-62): > 100000 nM
- GI50 (SF-539): 5620 nM
- GI50 (HCT-116): 1860 nM
- MGM (mean graph midpoint for growth inhibition) ([1]; Table 1): 15.49 µM
- GI50 (OVCAR-3): 28200 nM
- GI50 (SN12C): 5370 nM
- GI50 (DU-145): 3550 nM
- GI50 (HOP-62): 35500 nM
- GI50 (MCF7): 2750 nM

SMILES: COc1cc2c3c(n(CCCNCCO)c(=O)c2cc1OC)-c1ncccc1C3=O.Cl [Compound 31, 7-Aza-5,6-dihydro-6-(3-(2-hydroxyethylamino)propyl)-2,3-dimethoxy-5,11-dioxo-11H-indeno[1,2-c]isoquinoline Hydrochloride]
- GI50 (UACC-62): 120 nM
- GI50 (SF-539): 260 nM
- GI50 (HCT-116): 150 nM
- MGM (mean graph midpoint for growth inhibition) ([1]; Table 1): 0.29 µM
- GI50 (OVCAR-3): 340 nM
- GI50 (SN12C): 230 nM
- GI50 (DU-145): 320 nM
- GI50 (HOP-62): 300 nM
- GI50 (MCF7): 74 nM

SMILES: COc1cc2c3c(n(CCCN(C)C)c(=O)c2cc1OC)-c1ccccc1C3=O [Compound 34, reference compound]
- GI50 (UACC-62; [2]): 6610 nM
- GI50 (SF-539; Homo sapiens, 48 h, read-out: cytotoxicity (GI50) CNS SF-539, 48 h, sulforhodamine B, single determination, Table 1): 6170 nM
- GI50 (HCT-116; [3]): 2450 nM
- MGM (mean graph midpoint for growth inhibition) ([1]; Table 1): 6.17 µM
- GI50 (OVCAR-3; [4]): 5890 nM
- GI50 (SN12C; [5]): 11000 nM
- GI50 (DU-145; [6]): 4470 nM
- GI50 (HOP-62; [7]): 11500 nM
- GI50 (MCF7; [8]): 6170 nM

SMILES: COc1ccc2c(n1)C(=O)c1c-2n(CCCN(C)C)c(=O)c2cc(OC)c(OC)cc12.O=C(O)C(F)(F)F [Compound 45, 10-Aza-5,6-dihydro-6-(3-dimethylaminopropyl)-2,3,9-trimethoxy-5,11-dioxo-11H-indeno[1,2-c]isoquinoline Trifluoroacetate]
- Top1 Cleavage (human recombinant Top1; Table 2): +++

SMILES: COc1cc2c3c(n(C)c(=O)c2cc1OC)-c1cc2c(cc1C3=O)OCO2 [Compound 2, reference compound]
- GI50 (UACC-62; [9]): 560 nM
- GI50 (SF-539; [10]): 1700 nM
- GI50 (HCT-116; [3]): 11500 nM
- GI50 (HCT-116; [11]): 11500 nM
- MGM (mean graph midpoint for growth inhibition) ([1]; Table 1): 8.51 µM
- MGM (mean graph midpoint for growth inhibition) ([1]; Table 2): 8.5 µM
- GI50 (SN12C; [5]): 25700 nM
- GI50 (SN12C; [12]): 26000 nM
- GI50 (DU-145; [6]): 4790 nM
- GI50 (DU-145; [13]): 4800 nM
- GI50 (HOP-62; [7]): 2820 nM
- GI50 (HOP-62; [14]): 2800 nM
- GI50 (MCF7; [8]): 1910 nM
- GI50 (MCF7; [15]): 1900 nM

SMILES: CN(C)CCCn1c2c(c3ccccc3c1=O)C(=O)c1ccccc1-2 [Compound 33, reference compound]
- GI50 (UACC-62; [2]): 510 nM
- GI50 (HCT-116; [3]): 580 nM
- MGM (mean graph midpoint for growth inhibition) ([1]; Table 1): 1.86 µM
- GI50 (OVCAR-3; [4]): 1660 nM
- GI50 (SN12C; [5]): 910 nM
- GI50 (DU-145; [6]): 1320 nM
- GI50 (HOP-62; [7]): 1740 nM
- GI50 (MCF7; [8]): 550 nM

SMILES: COc1cc2c3c(n(CCCn4ccnc4)c(=O)c2cc1OC)-c1ncccc1C3=O [Compound 29, 7-Aza-5,6-dihydro-6-(3-(1H-imidazol-1-yl)propyl)-2,3-dimethoxy-5,11-dioxo-11H-indeno[1,2-c]isoquinoline]
- Top1 Cleavage (human recombinant Top1; Table 1): ++

SMILES: COc1cc2c3c(n(CCCN(C)C)c(=O)c2cc1OC)-c1cccnc1C3=O.O=C(O)C(F)(F)F [Compound 37, 10-Aza-5,6-dihydro-6-(3-dimethylaminopropyl)-2,3-dimethoxy-5,11-dioxo-11H-indeno[1,2-c]isoquinoline Trifluoroacetate]
- Top1 Cleavage (human recombinant Top1; Table 2): ++

SMILES: COc1cc2c3c(n(CCCN)c(=O)c2cc1OC)-c1ncccc1C3=O.Cl [Compound 32, 7-Aza-5,6-dihydro-6-(3-aminopropyl)-2,3-dimethoxy-5,11-dioxo-11H-indeno[1,2-c]isoquinoline Hydrochloride]
- GI50 (UACC-62): 8130 nM
- GI50 (SF-539): 2190 nM
- GI50 (HCT-116): 380 nM
- MGM (mean graph midpoint for growth inhibition) ([1]; Table 1): 2.09 µM
- GI50 (OVCAR-3): 1580 nM
- GI50 (SN12C): 2880 nM
- GI50 (DU-145): 1620 nM
- GI50 (HOP-62): 3020 nM
- GI50 (MCF7): 49000 nM

SMILES: CC[C@@]1(O)C(=O)OCc2c1cc1n(c2=O)Cc2cc3ccccc3nc2-1 [Compound 1, camptothecin, reference compound]
- GI50 (UACC-62; [2]): 10 nM
- GI50 (UACC-62; [9]): 10 nM
- GI50 (SF-539; [10]): 10 nM
- GI50 (HCT-116; [3]): 30 nM
- GI50 (HCT-116; [11]): 30 nM
- MGM (mean graph midpoint for growth inhibition) ([1]; Table 1): 0.04 µM
- MGM (mean graph midpoint for growth inhibition) ([1]; Table 2): 0.040 µM
- GI50 (SN12C; [5]): 20 nM
- GI50 (SN12C; [12]): 20 nM
- GI50 (DU-145; [6]): 10 nM
- GI50 (DU-145; [13]): 10 nM
- GI50 (HOP-62; [7]): 10 nM
- GI50 (HOP-62; [14]): 10 nM
- GI50 (MCF7; [15]): 13 nM

SMILES: COc1cc2c3c(n(CCCN(C)C)c(=O)c2cc1OC)-c1cnccc1C3=O.O=C(O)C(F)(F)F [Compound 117, 8-Aza-5,6-dihydro-6-(3-dimethylaminopropyl)-2,3-dimethoxy-5,11-dioxo-11H-indeno[1,2-c]isoquinoline Trifluoroacetate]
- Top1 Cleavage (human recombinant Top1; Table 2): ++

SMILES: O=C1c2cccnc2-c2c1c1ccc([N+](=O)[O-])cc1c(=O)n2CCCN1CCOCC1 [Compound 23, 7-Aza-5,6-dihydro-6-(3-morpholinopropyl)-3-nitro-5,11-dioxo-1H-indeno-[1,2-c]isoquinoline Hydrochloride]
- Top1 Cleavage (human recombinant Top1; Table 1): +++

SMILES: COc1ccc2c(n1)C(=O)c1c-2n(CCCN2CCOCC2)c(=O)c2cc(OC)c(OC)cc12.O=C(O)C(F)(F)F [Compound 46, 10-Aza-5,6-dihydro-6-(3-(4-morpholino)propyl)-2,3,9-trimethoxy-5,11-dioxo-11H-indeno[1,2-c]isoquinoline Trifluoroacetate]
- Top1 Cleavage (human recombinant Top1; Table 2): +++
